Laboratory results published in paper PMC11407620, “Repurposing auranofin and meclofenamic acid as energy-metabolism inhibitors and anti-cancer drugs” (PLOS ONE, 2024).
Values joined by “and” are separate entries in the source; they are usually repeats but may differ in a detail not shown here. Identical values can stand only once.

Key:
[1] = test system: MDA-MB-468 cells; experiment: OxPhos flux (oligomycin-sensitive respiration) in intact cells; type: cell-based, human; conditions: +MA 50 μM, 24 h
Protocol: For oxidative phosphorylation (OxPhos) flux, cells (2–5 mg protein/mL) were incubated at 37°C in air saturated KR medium plus 5 mM glucose. To distinguish the oxygen consumption associated to OxPhos, the cells were incubated with 5 μM oligomycin (Sigma-Aldrich, MO, USA), a potent, specific, and permeable inhibitor of the mitochondrial ATP synthase. The net OxPhos rate was determined by using a Clark type electrode, as previously described and by using a high-resolution respirometer (Oroboros Instruments, Innsbruck, Austria) at 37°C. The contribution of OxPhos and glycolysis to the cellular ATP supply was determined, respectively, from the net OxPhos rate (oligomycin-sensitive respiration) multiplied by the ATP/O or P»/O2 ratio that corresponds to 2.5 or 5, and from the rate of lactate production, assuming a stoichiometry of 1 mol of ATP produced per 1 mol of lactate produced.

[2] = test system: Rat Heart Mitochondria; experiment: Oxygen consumption of isolated mitochondria; type: biochemical; conditions: 5 mM Glutamate/5 mM Malate
Protocol: Rat liver (RLM) and heart (RHM) mitochondria were isolated as described previously by differential centrifugation.
Respiration of AS-30D, liver and heart mitochondria (1 mg protein/mL) was assayed oxygraphically with a Clark-type O2 electrode in KME (120 mM KCl, 20 mM Mops, 1 mM EGTA) buffer pH 7.2 plus 2 mM KH2PO4, and different oxidizable substrates (as indicated in Results). For state 3 respiration, 600 nmol ADP were added. Mitochondria were incubated at 37°C with Aur and MA for 30–60 s before substrates were added. At the end of each respiratory measurement, dithionite was added to get the chemical zero oxygen signal.

[3] = test system: Glioblastoma U373 cells; experiment: Cell proliferation, 24 h drug exposure; type: cell-based, human
Protocol: All metastatic (breast MDA-MB231, MDA-MB468, cervix HeLa, prostate PC3, colorectal HCT116, COLO205, glioblastoma U373), low-metastatic (breast MCF-7) cancer and non-cancer (fibroblast 3T3, cardiomyocytes H9C2) cell lines (American Type Culture Collection, Rockville, MD, USA) used in this study were cultured in Petri dishes in 20 mL of Dulbecco’s Modified Eagle’s Medium (DMEM, Sigma, MO, USA) supplemented with 10% fetal bovine serum (Biowest, Mexico) and 10,000 U penicillin/streptomycin (Sigma-Aldrich, MO, USA). […] For growth and maintenance, cells were incubated in 5% CO2/95% air at 37°C and kept until 80–90% of confluence was reached. Then, cells were harvested, washed by centrifugation and resuspended in Krebs-Ringer buffer (KR, 125 mM NaCl, 5 mM KCl, 25 mM Hepes, 1 mM MgCl2, 1 mM KH2PO4, 1.4 mM CaCl2, pH 7.4) for further use. For experimentation, cancer cells (3–5 x 10^6 cells) were cultured in DMEM (with 25 mM glucose) for 24 h in the absence of drugs. Afterwards, old-medium was replaced with fresh DMEM medium (with 25 mM glucose) in the absence (control, non-treated cells) or in the presence of logarithmic concentrations of Aur and MA for 24 h more, under the same culture conditions described above. Viability of cultured cells was determined by the trypan blue exclusion assay. The protein concentration was determined by the Lowry method.
For cell proliferation in the presence of drugs, cancer cells (20 x 10^3 cells/well) were grown in 96-well plates containing DMEM (Sigma-Aldrich) plus 10% bovine fetal serum for 24 h. […] The effect of these drugs on cell proliferation was determined in 96-well plates by the MTT (3-[4,5-dimethyl-thiazol-2-yl]-2,5-diphenyltetrazolium bromide) assay. The viability of cancer cells was > 95% after treatment with drugs.

[4] = test system: HeLa, MDA-MB-231 and MDA-MB-468 cells; experiment: Cell migration, wound healing assay; type: cell-based, human; conditions: Aur at IC50 (1.7, 0.8, 2 μM); 24 h
Protocol: The wound healing assay was performed for cell migration detection. In petri dishes with full DMEM, cancer cells (5 x 10^6 cells/well) were cultured at 37°C under 95% air and 5% CO2 until 80–90% confluence was attained. Afterwards, cell culture was wounded with a 1 mL pipette tip, washed twice with PBS (155 mM NaCl, 1.5 mM KH2PO4, 2.7 mM NaH2PO4, pH 7.2) and subsequently incubated at 37°C with fresh non-serum DMEM. Cellular migration images were taken in an inverted microscope (Zeiss, Thornwood, NY, USA) after 0 and 24 h incubation time. Using a graduated reticule (Zeiss, Thornwood, NY, USA), cellular migration was assessed from the petri dish’s border to its center distance travelled.
The Aur concentration added was 1.7, 0.8 and 2 μM for HeLa, MDA-MB-231 and MDA-MB-468 cells, respectively. n = 3; *p < 0.05, **p<0.01 vs. Control (Non-treated cells).

[5] = test system: HeLa, MDA-MB-231 and MDA-MB-468 cells; experiment: Cell invasiveness, Boyden chamber; type: cell-based, human; conditions: Aur at IC50 (1.7, 0.8, 2 μM); 24 h
Protocol: (§1) The 96-multiwell Boyden chambers (Merck Millipore, MA, USA) assay was performed for cellular invasiveness detection. Cancer cells (5 × 10^4 cells/well) were re-suspended in free-serum DMEM and placed in the upper Boyden chamber compartment. Free-serum DMEM was also placed in the lower compartment of the chamber. Afterwards, the Boyden chamber was placed at 37°C and 95% air/5% CO2 for 24 h. Invasive cancer cells within the lower chamber compartment were detected by using the calcein-AM (60 nM, 1 h) assay at 37°C. Calcein-fluorescence was measured at λexcitation = 485 nm and λemission = 520 nm in a Nunclon microplate reader (Roskilde, Denmark).
(§2) The Aur concentration added was 1.7, 0.8, 2 and 0.6 μM for HeLa, MDA-MB-231, MDA-MB-468 and U373 cells, respectively. n = 3; *p < 0.05, **p<0.01 vs. Control (Non-treated cells).

[6] = test system: U373 glioblastoma cells; experiment: Cell invasiveness, Boyden chamber; type: cell-based, human; conditions: 0.6 μM Aur, 24 h
Protocol: as §1, §2

[7] = design: method as in PMID 27821451, PMID 6411921; conditions: patients receiving oral Aur; after 24 h -7 d of treatment; cited from earlier work

Row | Structure (SMILES) | OxPhos flux [1] | Net State 3 oxygen consumption rate ([2]; 10 μM MA) | Pseudo State 4 oxygen consumption rate ([2]; 10 μM MA) | RC ([2]; 10 μM MA) | State 3 oxygen consumption rate ([2]; 10 μM MA) | State 4 oxygen consumption rate ([2]; 10 μM MA) | Net State 3 oxygen consumption rate ([2]; 50 μM MA) | Pseudo State 4 oxygen consumption rate ([2]; 50 μM MA) | RC ([2]; 50 μM MA) | State 3 oxygen consumption rate ([2]; 50 μM MA) | State 4 oxygen consumption rate ([2]; 50 μM MA) | IC50 ([3]; Glioblastoma U373, 24 h, read-out: IC50 for proliferation cell rate) [nM] | TI ratio (3T3/ cancer cells) ([3]; IC50 3T3 / IC50 U373) | TI ratio (H9C2/cancer cells) ([3]; IC50 H9C2 / IC50 U373) | inhibition of migration [4] | inhibition of invasiveness [5] | inhibition of cell invasiveness [6] [%] | blood Aur levels [7]
1 | Cc1ccc(Cl)c(Nc2ccccc2C(=O)O)c1Cl [MA, Meclofenamic acid] | 4.8 ± 0.8 nmol O2 min^-1 mg protein^-1 | 48 ± 83 | 143 ± 42 (3) | 1.4 ±0.6 (3) | 177 ± 56 (3) | 126 ± 16 (3) | 12.5± 22 | 134 ± 9.5 (3) | 1 (3) | 139 ± 22 (3) | 139 ± 22 (3) |  |  |  |  |  |  | 
2 | CC(=O)OC[C@H]1O[C@@H]([S-])[C@H](OC(C)=O)[C@@H](OC(C)=O)[C@@H]1OC(C)=O.CCP(CC)CC.[Au+] [Aur, [1-(thio-κS)-β-D-glucopyranose-2,3,4,6-tetraacetyl] (triethylphosphine)-gold] |  |  |  |  |  |  |  |  |  |  |  | 600 ± 100 | 70 | 130 | 90–95% | 45–80% | 75 | 49–310 ng/mL and 0.1–0.6 μM
